Earlier results on one compound are cited in patent US20220370615A1, “Prevention of Illicit Manufacture of Methamphetamine from Pseudoephedrine Using Food Flavor Excipients” (Satara Pharmaceuticals, priority 2021, published 2022).

For the series the following is noted: species and route not given.

Turning to `CC(=O)c1cnccn1` [Acetylpyrazine], the LD50 is given as above 4000 mg/kg.

As usually defined, the LD50 is the dose at which mortality reaches 50%.
